Target: T1, HCV polymerase (Hepatitis C virus genotype 1b, UniProt P26663)
T1 construct: 2.5 pmoles (0.15 μg) HCV polymerase protein in a final volume of 75 μL
Assay: HCV polymerase primer/template-directed transcription assay (32P-GTP incorporation, filter binding)
Format: biochemical
Conditions: recombinant HCV polymerase; 30 minutes at 30° C.; concentration giving 50% inhibition of polymerase-directed transcription; read-out: IC50
Procedure, shortened: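 Recombinant genotype 1b polymerase (30 nM) extended biotin-dG12 primer on poly(rC)300 template with 1 μM GTP plus α-32P-GTP, pH 7.2, 10 mM MgCl2, 30 min at 30° C, 1% DMSO final. Products captured on DE filters and counted. IC50 fitted from triplicate cpm, with a tight-binding correction applied below 200 nM.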

T1 sequence (P26663 2420-3010): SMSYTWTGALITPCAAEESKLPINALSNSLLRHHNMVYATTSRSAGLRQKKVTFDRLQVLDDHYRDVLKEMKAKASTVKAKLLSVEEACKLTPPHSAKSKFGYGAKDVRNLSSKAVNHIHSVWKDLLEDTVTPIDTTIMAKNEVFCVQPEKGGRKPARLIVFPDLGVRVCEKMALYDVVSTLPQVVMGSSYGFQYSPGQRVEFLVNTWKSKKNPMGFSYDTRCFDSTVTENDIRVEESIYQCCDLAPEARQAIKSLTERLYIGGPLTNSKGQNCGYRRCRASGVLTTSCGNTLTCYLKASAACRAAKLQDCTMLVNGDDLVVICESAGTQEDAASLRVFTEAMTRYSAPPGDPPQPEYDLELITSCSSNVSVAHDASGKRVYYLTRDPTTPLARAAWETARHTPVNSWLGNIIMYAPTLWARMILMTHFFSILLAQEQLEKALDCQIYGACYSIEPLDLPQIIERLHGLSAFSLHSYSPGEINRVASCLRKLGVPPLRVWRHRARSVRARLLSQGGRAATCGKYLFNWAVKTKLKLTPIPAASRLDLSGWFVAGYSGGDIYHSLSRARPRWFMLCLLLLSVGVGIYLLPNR

SMILES | IC50 [µM]
COCc1cc(CCC2(C3CCCC3)CC(O)=C(Cc3nc4nc(C)cc(C)n4n3)C(=O)O2)ccc1O (centres unmarked) [A(192), 6-Cyclopentyl-3-(5,7-dimethyl-[1,2,4]triazolo[1,5-a]pyrimidin-2-ylmethyl)-4-hydroxy-6-[2-(4-hydroxy-3-methoxymethyl-phenyl)-ethyl]-5,6-dihydro-pyran-2-one] | 0.028
Cc1cc(C)n2nc(CC3=C(O)CC(CCc4ccc(O)c(CO)c4)(C4CCCC4)OC3=O)nc2n1 (centres unmarked) [A(193), 6-Cyclopentyl-3-(5,7-dimethyl-[1,2,4]triazolo[1,5-a]pyrimidin-2-ylmethyl)-4-hydroxy-6-[2-(4-hydroxy-3-hydroxymethyl-phenyl)-ethyl]-5,6-dihydro-pyran-2-one] | 0.098
COCc1cc(CCC2(C3CCCC3)CC(=O)CC(=O)O2)ccc1O (centres unmarked) [A(194), 6-Cyclopentyl-6-[2-(4-hydroxy-3-methoxymethyl-phenyl)-ethyl]-dihydro-pyran-2,4-dione] | 6.9
O=C1CC(=O)OC(CCc2ccc(O)c(CO)c2)(C2CCCC2)C1 (centres unmarked) [A(195), 6-Cyclopentyl-6-[2-(4-hydroxy-3-hydroxymethyl-phenyl)-ethyl]-dihydro-pyran-2,4-dione] | 11
CC(C)(C#N)c1ccc(CCC2(C3CCCC3)CC(O)=C(Cc3nc4ncc(Cl)cn4n3)C(=O)O2)cc1Cl (centres unmarked) [A(198), 2-(2-Chloro-4-{2-[5-(6-chloro-[1,2,4]triazolo[1,5-a]pyrimidin-2-ylmethyl)-2-cyclopentyl-4-hydroxy-6-oxo-3,6-dihydro-2H-pyran-2-yl]-ethyl}-phenyl)-2-methyl-propionitrile] | 0.016
Cc1cnc2nc(CC3=C(O)CC(CCc4ccc(C(C)(C)C#N)c(Cl)c4)(C4CCCC4)OC3=O)nn2c1 (centres unmarked) [A(199), 2-(2-Chloro-4-{2-[2-cyclopentyl-4-hydroxy-5-(6-methyl-[1,2,4]triazolo[1,5-a]pyrimidin-2-ylmethyl)-6-oxo-3,6-dihydro-2H-pyran-2-yl]-ethyl}-phenyl)-2-methyl-propionitrile] | 0.01
CCc1cc(CCC2(C3CCCC3)CC(O)=C(Cc3nc4ncccn4n3)C(=O)O2)c(OC)cc1O (centres unmarked) [A(207), 6-cyclopentyl-6-[2-(5-ethyl-4-hydroxy-2-methoxyphenyl)ethyl]-4-hydroxy-3-([1,2,4]triazolo[1,5-a]pyrimidin-2-ylmethyl)-5,6-dihydro-2H-pyran-2-one] | 0.004
CC(C)(O)c1ccc(CCC2(C3CCCC3)CC(O)=C(Cc3nc4ncc(Cl)cn4n3)C(=O)O2)cc1F (centres unmarked) [A(214), 3-[(6-chloro[1,2,4]triazolo[1,5-a]pyrimidin-2-yl)methyl]-6-cyclopentyl-6-{2-[3-fluoro-4-(1-hydroxy-1-methylethyl)phenyl]ethyl}-4-hydroxy-5,6-dihydro-2H-pyran-2-one] | 0.038
CC(C)(O)c1ccc(CCC2(C3CCCC3)CC(=O)CC(=O)O2)cc1F (centres unmarked) [A(215), 6-cyclopentyl-6-{2-[3-fluoro-4-(1-hydroxy-1-methylethyl)phenyl]ethyl}dihydro-2H-pyran-2,4(3H)-dione] | 4.9
Cc1cnc2nc(CC3=C(O)CC(CCc4ccc(C(C)(C)O)c(F)c4)(C4CCCC4)OC3=O)nn2c1 (centres unmarked) [A(216)] | 0.045
Cc1cc(C)n2nc(CC3=C(O)CC(CCc4ccc(C(C)(C)O)c(F)c4)(C4CCCC4)OC3=O)nc2n1 (centres unmarked) [A(217), 6-cyclopentyl-3-[(5,7-dimethyl[1,2,4]triazolo[1,5-a]pyrimidin-2-yl)methyl]-6-{2-[3-fluoro-4-(1-hydroxy-1-methylethyl)phenyl]ethyl}-4-hydroxy-5,6-dihydro-2H-pyran-2-one] | 0.014
CC(C)(O)c1ccc(CCC2(C3CCCC3)CC(O)=C(Cc3nc4ncccn4n3)C(=O)O2)cc1F (centres unmarked) [A(220), 6-cyclopentyl-6-{2-[3-fluoro-4-(1-hydroxy-1-methylethyl)phenyl]ethyl}-4-hydroxy-3-([1,2,4]triazolo[1,5-a]pyrimidin-2-ylmethyl)-5,6-dihydro-2H-pyran-2-one] | 0.172
CC(C)(C#N)c1ccc(CCC2(C3CCCC3)CC(O)=C(Cc3cn4cccnc4n3)C(=O)O2)cc1F (centres unmarked) [A(221), 2-(4-{2-[2-cyclopentyl-4-hydroxy-5-(imidazo[1,2-a]pyrimidin-2-ylmethyl)-6-oxo-3,6-dihydro-2H-pyran-2-yl]ethyl}-2-fluorophenyl)-2-methylpropanenitrile] | 0.014
CC(C)(C#N)c1ccc(CCC2(C3CCCC3)CC(O)=C(Cc3cnc4ncccn34)C(=O)O2)cc1F (centres unmarked) [A(222), 2-(4-{2-[2-cyclopentyl-4-hydroxy-5-(imidazo[1,2-a]pyrimidin-3-ylmethyl)-6-oxo-3,6-dihydro-2H-pyran-2-yl]ethyl}-2-fluorophenyl)-2-methylpropanenitrile] | 0.12
Cc1cnc2nc(CC3=C(O)CC(CCc4ccc(O)c(CC(F)(F)F)c4)(C4CCCC4)OC3=O)nn2c1 (centres unmarked) [A(224), 6-cyclopentyl-4-hydroxy-6-{2-[4-hydroxy-3-(2,2,2-trifluoroethyl)phenyl]ethyl}-3-[(6-methyl[1,2,4]triazolo[1,5-a]pyrimidin-2-yl)methyl]-5,6-dihydro-2H-pyran-2-one] | 0.004
Cc1cc(C)n2nc(CC3=C(O)CC(CCc4ccc(O)c(CC(F)(F)F)c4)(C4CCCC4)OC3=O)nc2n1 (centres unmarked) [A(225), 6-cyclopentyl-3-[(5,7-dimethyl[1,2,4]triazolo[1,5-a]pyrimidin-2-yl)methyl]-4-hydroxy-6-{2-[4-hydroxy-3-(2,2,2-trifluoroethyl)phenyl]ethyl}-5,6-dihydro-2H-pyran-2-one] | 0.003
O=C1CC(=O)OC(CCc2ccc(O)c(CC(F)(F)F)c2)(C2CCCC2)C1 (centres unmarked) [A(228), 6-cyclopentyl-6-{2-[4-hydroxy-3-(2,2,2-trifluoroethyl)phenyl]ethyl}dihydro-2H-pyran-2,4(3H)-dione] | 0.47
CCc1cc(CCC2(C3CCCC3)CC(O)=C(Cc3nc4nc(C)ccn4n3)C(=O)O2)ccc1O (centres unmarked) [A(229), 6-cyclopentyl-6-[2-(3-ethyl-4-hydroxyphenyl)ethyl]-4-hydroxy-3-[(5-methyl[1,2,4]triazolo[1,5-a]pyrimidin-2-yl)methyl]-5,6-dihydro-2H-pyran-2-one] | 0.01
CCc1cc(CCC2(C3CCCC3)CC(O)=C(Cc3nc4ncc(Br)cn4n3)C(=O)O2)ccc1O (centres unmarked) [A(230), 3-[(6-bromo[1,2,4]triazolo[1,5-a]pyrimidin-2-yl)methyl]-6-cyclopentyl-6-[2-(3-ethyl-4-hydroxyphenyl)ethyl]-4-hydroxy-5,6-dihydro-2H-pyran-2-one] | 0.011
CCc1cc(CCC2(C3CCCC3)CC(O)=C(Cc3nc4ncc(Cl)cn4n3)C(=O)O2)cc(CC)c1O (centres unmarked) [A(231), 3-[(6-chloro[1,2,4]triazolo[1,5-a]pyrimidin-2-yl)methyl]-6-cyclopentyl-6-[2-(3,5-diethyl-4-hydroxyphenyl)ethyl]-4-hydroxy-5,6-dihydro-2H-pyran-2-one] | 0.006
CCc1cc(CCC2(C3CCCC3)CC(O)=C(Cc3nc4nc(C)cc(C)n4n3)C(=O)O2)cc(CC)c1O (centres unmarked) [A(232), 6-cyclopentyl-6-[2-(3,5-diethyl-4-hydroxyphenyl)ethyl]-3-[(5,7-dimethyl[1,2,4]triazolo[1,5-a]pyrimidin-2-yl)methyl]-4-hydroxy-5,6-dihydro-2H-pyran-2-one] | 0.004
CCc1cc(CCC2(C3CCCC3)CC(O)=C(Cc3nc4ncc(C)cn4n3)C(=O)O2)cc(CC)c1O (centres unmarked) [A(233), 6-cyclopentyl-6-[2-(3,5-diethyl-4-hydroxyphenyl)ethyl]-4-hydroxy-3-[(6-methyl[1,2,4]triazolo[1,5-a]pyrimidin-2-yl)methyl]-5,6-dihydro-2H-pyran-2-one] | 0.011
CCc1cc(CCC2(C3CCCC3)CC(O)=C(Cc3nc4ncccn4n3)C(=O)O2)cc(CC)c1O (centres unmarked) [A(234), 6-cyclopentyl-6-[2-(3,5-diethyl-4-hydroxyphenyl)ethyl]-4-hydroxy-3-([1,2,4]triazolo[1,5-a]pyrimidin-2-ylmethyl)-5,6-dihydro-2H-pyran-2-one] | 0.011
CCc1cc(CCC2(C3CCCC3)CC(=O)CC(=O)O2)cc(CC)c1O (centres unmarked) [A(235), 6-cyclopentyl-6-[2-(3,5-diethyl-4-hydroxyphenyl)ethyl]dihydro-2H-pyran-2,4(3H)-dione] | 0.89
Cc1cc(C)n2nc(CC3=C(O)CC(CCc4ccc(C5(C#N)CCC5)c(F)c4)(C4CCCC4)OC3=O)nc2n1 (centres unmarked) [A(236), 1-(4-{2-[2-Cyclopentyl-5-(5,7-dimethyl-[1,2,4]triazolo[1,5-a]pyrimidin-2-ylmethyl)-4-hydroxy-6-oxo-3,6-dihydro-2H-pyran-2-yl]-ethyl}-2-fluoro-phenyl)-cyclobutanecarbonitrile] | 0.003
N#CC1(c2ccc(CCC3(C4CCCC4)CC(=O)CC(=O)O3)cc2F)CCC1 (centres unmarked) [A(237), 1-{4-[2-(2-Cyclopentyl-4,6-dioxo-tetrahydro-pyran-2-yl)-ethyl]-2-fluoro-phenyl}-cyclobutanecarbonitrile] | 1
N#CC1(c2ccc(CCC3(C4CCCC4)CC(O)=C(Cc4nc5ncccn5n4)C(=O)O3)cc2F)CCC1 (centres unmarked) [A(238), 1-{4-[2-(2-Cyclopentyl-4-hydroxy-6-oxo-5-[1,2,4]triazolo[1,5-a]pyrimidin-2-ylmethyl-3,6-dihydro-2H-pyran-2-yl)-ethyl]-2-fluoro-phenyl}-cyclobutanecarbonitrile] | 0.01
Cc1cnc2nc(CC3=C(O)CC(CCc4ccc(C5(C#N)CCC5)c(F)c4)(C4CCCC4)OC3=O)nn2c1 (centres unmarked) [A(239), 1-(4-{2-[2-Cyclopentyl-4-hydroxy-5-(6-methyl-[1,2,4]triazolo[1,5-a]pyrimidin-2-ylmethyl)-6-oxo-3,6-dihydro-2H-pyran-2-yl]-ethyl}-2-fluoro-phenyl)-cyclobutanecarbonitrile] | 0.003
Cc1cnc2nc(CC3=C(O)CC(CCc4ccc(C(C)C#N)c(F)c4)(C4CCCC4)OC3=O)nn2c1 (centres unmarked) [A(240), 2-(4-{2-[2-Cyclopentyl-4-hydroxy-5-(6-methyl-[1,2,4]triazolo[1,5-a]pyrimidin-2-ylmethyl)-6-oxo-3,6-dihydro-2H-pyran-2-yl]-ethyl}-2-fluoro-phenyl)-propionitrile] | 0.009
